Laboratory results: patent publication US20210299079A1, “MONOMETHYL FUMARATE-CARRIER CONJUGATES AND METHODS OF THEIR USE” (Flagship Pioneering Innovations V, Inc., priority 2018, published 2021)

Experiments:
Assay type in all cases: cell-based
naïve CD4+ T cells = experiment: Human Regulatory T Cell Differentiation Assay; details: 6 days; for Cell viability % DMSO: viability dye; for activity at 500 µM: IL-2, 0.5 mM
Procedure: Peripheral blood mononuclear cells (PBMCs) from whole blood donated by health volunteers were separated by Ficoll-Paque gradient centrifugation and naïve CD4^+ T cells were subsequently isolated using magnet beads (EasySep™ Human Naïve CD4^+ T Cell Isolation Kit, Cambridge, Mass.). For regulatory T cell (Treg) differentiation assay, naïve CD4^+ T cells were cultured (1-10×10^4 cells) in CTS OpTmizer medium for 6 days and stimulated with 5 ng/ml TGF-β, 100 U/ml IL-2, and ImmunoCult™ Human […] T Cell Activator; Stemcell #10990) with/without our Compounds. Cell viability was determined using a viability dye (eBioscience Fixable Viability Dye eFluor 780: ThermoFisher 65-0865-14) at 1:500 dilution. The cells were gated for Treg, defined as Live, CD11c^−, CD14^−, CD19^−, CD8^−, CD4^+, CD3^+, CD25^+, FOXP3^+. Percent (%) Tregs were calculated as percentage of CD4^+, CD25^+, FOXP3^+ cells over total CD4^+ T cells. Statistical analysis was performed with GraphPad Prism Software Using One-Way ANOVA.

IL-8 = experiment: Neutrophil Chemokine Production Assay: IL-8; details: human neutrophils, 12 h
Procedure: (§1) A volume 25 mL of human blood was layered over 15 mL of Histopaque®-1077 and centrifuged at 500 g, R^T, for 30 min with no break applied to the centrifuge. The PBMC band and Histopaque®-1077 layer were removed leaving behind the bottom red layer which was mixed with 40 mL of 1× red blood cell (RBC) lysis buffer (Sigma-Aldrich) was and split into two 50 mL tubes. The volume for both fractions was brought to 50 mL with RBC lysis buffer, mixed by inversion, and then incubated at RT for 10 min. Solutions were centrifuged at 250 g, for 10 min at RT and the supernatant liquids removed. The reddish pellets were re-suspended in 1 mL of RBC lysis buffer and combined. The cell suspension was incubated for 5 min at RT in RBC lysis buffer. After incubation 45 mL of Hanks Balanced Salt Solution with no calcium, magnesium or phenol red (HBSS—) was added, the cell suspension was spun (250 g for 10 min at RT), and supernatant liquids were removed. The white pellet was re-suspended in 1 mL of HBSS—, and cell counts were determined. The neutrophil cell suspension was brought to a concentration of 1.11e6 cells/mL in RPMI complete (Sigma-Aldrich), and 180 μL of cell suspension was transferred to all wells within a sterile 96-well tissue culture treated plate resulting in 2.0×10^5 cells/well. […] After incubation, 10 μL of 2 μg/mL LPS solution in RPMI complete was added to each well except for control wells, which received an additional 10 μL of media. Cells were incubated for 12 h (37° C., 5% CO2), after which plates were centrifuged at 250 g, RT, for 5 min and supernatant liquids were obtained and stored at −80° C. until analyzed via Luminex® Multiplex Assay for various chemokines and cytokines. Three data points were acquired from two different blood donors and averaged.

IL-6 = experiment: Cytokine Release from Human PBMCs: IL-6; details: LPS, 24 hours, Concentration 100 μM
Procedure: (§2) Human donor blood (8 mL) was collected in sodium citrate CPT tubes and centrifuged at 1,600×g for 20 minutes at room temperature. Buffy coat containing PBMCs was collected and transferred to a 50 mL conical tube containing 30 mL of RPMI-1640 medium at room temperature (supplemented with penicillin-streptomycin). PBMCs samples were centrifuged at 400×g for 10 minutes at 10° C. The pelleted PBMCs were washed twice in 10 ml of RPMI-1640 medium (supplemented with penicillin-streptomycin), then resuspended in RPMI-1640 medium (supplemented with penicillin-streptomycin, fetal bovine serum, and L-Glutamine). PBMCs were filtered through a 70 micron mesh to remove any cellular debris. […] PBMCs in a 96-well plate were rested for 30 minutes in a 37° C., 5% CO2 incubator, then subsequently treated with 10 μI of indicated compound. After 2 hours 10 μL of LPS (0111:64) 1 mg/mL was added to test wells. After 24 hours of incubation at 37° C., 5% CO2, 100 μL of cell supernatant was collected and transferred to a 96-well plate (non-tissue treated, flat bottom). The plate was centrifuged at 350×g for 5 minutes at room temperature, and then the clear supernatant transferred to a new 96-well plate (non-tissue treated, flat bottom). The remaining cells were tested for viability using CellTiter-Glo® Luminescent Cell Viability Assay (Promega). The supernatant was analyzed for TNFα, IL-6 and IL-1β (kit […] Systems), using Luminex Immunoassay Technology (MAGPIX System).

MIP-1α = experiment: Neutrophil Chemokine Production Assay: MIP-1α; details: human neutrophils, 12 h
Procedure: as §1

MIP-1β = experiment: Neutrophil Chemokine Production Assay: MIP-1β; details: human neutrophils, 12 h
Procedure: as §1

TNFα = experiment: Cytokine Release from Human PBMCs: TNFα; details: LPS, 24 hours, Concentration 100 μM
Procedure: as §2

IL-1β = experiment: Cytokine Release from Human PBMCs: IL-1β; details: LPS, 24 hours, Concentration 100 μM
Procedure: as §2

Caco-2 colonocytes = experiment: Human Caco-2 Barrier Integrity Assay, Study 1; details: Caco-2, + cytokines (TNFα, IFNγ, IL-1β), 48 hours
Procedure: Caco-2 colonocytes were maintained at 37° C. and 5% CO2 in Dulbecco's Modified Eagle Medium (DMEM) and supplemented with 10% FBS, 1% NEAA, 1% penicillin-streptomycin. At 70-80% confluency, cells were trypsinized and seeded in 0.4 cm^2 transwell collagen I coated membranes with supplemented DMEM in both apical and basolateral compartments. […] After 48 hours, TEER readings were taken again and viability was measured by CellTiter 96® AQueous One Solution Cell Proliferation Assay (Promega).

[1] = Homo sapiens, 144 h, TGF-β, read-out: Treg induction % DMSO

SMILES	Cell viability % DMSO (naïve CD4+ T cells; 0.5 mM)	activity at 500 µM (naïve CD4+ T cells; [1])	% IL-8 (Vehicle + LPS = 100%) (IL-8; Conc. 500.0 μM)	% IL-8 (Vehicle + LPS = 100%) (IL-8; Conc. 1000.0 μM)	IL6 % DMSO control (IL-6)	% MIP-1α (Vehicle + LPS = 100%) (MIP-1α; Conc. 500.0 μM)	% MIP-1α (Vehicle + LPS = 100%) (MIP-1α; Conc. 1000.0 μM)	% MIP-1β (DMSO + LPS = 100%) (MIP-1β; Conc. 500.0 μM)	% MIP-1β (DMSO + LPS = 100%) (MIP-1β; Conc. 1000.0 μM)	TNFα % of DMSO control (TNFα)	IL1β % DMSO control (IL-1β)	further results
O=C[C@H](O)[C@@H](O)[C@@H](O)CO [L-arabinose]	= (90% > <110%: =)	90 to 110%	− (− = >90% Vehicle)	− (− = >90% Vehicle)	+ ((+) 50% > <90% DMSO)	− (− = >90% Vehicle)	− (− = >90% Vehicle)	− (− = >90% Vehicle)	− (− = >90% Vehicle)	+ ((+) 50% > <90% DMSO)	= ((=) 90% > <110% DMSO)	Cell viability % DMSO (naïve CD4+ T cells; 1 mM): = (90% > <110%: =); activity at 1000 µM (naïve CD4+ T cells; Homo sapiens, 144 h, TGF-β, IL-2, 1 mM, read-out: Treg induction % DMSO): 90 to 110%
C[C@@H](O)CCO [(R) 1,3-butanediol]	= (90% > <110%: =)	90 to 110%	− (− = >90% Vehicle)	–	= ((=) 90% > <110% DMSO)	− (− = >90% Vehicle)	–	+ (+ = <90% Vehicle)	–	= ((=) 90% > <110% DMSO)	= ((=) 90% > <110% DMSO)	Cell viability % DMSO (naïve CD4+ T cells; 100 μM): = (90% > <110%: =); activity at 100 µM (naïve CD4+ T cells; Homo sapiens, 144 h, TGF-β, IL-2, 100 μM, read-out: Treg induction % DMSO): 90 to 110%; % IL-8 (Vehicle + LPS = 100%) (IL-8; Conc. 100.0 μM): − (− = >90% Vehicle); % MIP-1α (Vehicle + LPS = 100%) (MIP-1α; Conc. 100.0 μM): − (− = >90% Vehicle); % Change in TEER from DMSO (Caco-2 colonocytes; 100 μM): − (<125%: −); % Change in TEER from DMSO (Caco-2 colonocytes; 0.5 mM): − (<125%: −); % MIP-1β (DMSO + LPS = 100%) (MIP-1β; Conc. 100.0 μM): + (+ = <90% Vehicle)
CCCC(=O)O [butyrate]	–	–	++ (++ = <70% Vehicle)	++ (++ = <70% Vehicle)	+ ((+) 50% > <90% DMSO)	+++ (+++ = <50% Vehicle)	+++ (+++ = <50% Vehicle)	+++ (+++ = <50% Vehicle)	+++ (+++ = <50% Vehicle)	++ ((++) <50% DMSO)	− ((−) >110% DMSO)	% Change in TEER from DMSO (Caco-2 colonocytes; 1 mM): − (<125%: −); % Change in TEER from DMSO (Caco-2 colonocytes; 3 mM): − (<125%: −); % Change in TEER from DMSO (Caco-2 colonocytes; 5 mM): ++ (150% > <200%: ++)
CC(O)CC(=O)O (stereo not drawn) [β-hydroxybutyrate]	–	–	–	–	= ((=) 90% > <110% DMSO)	–	–	–	–	− ((−) >110% DMSO)	− ((−) >110% DMSO)	% Change in TEER from DMSO (Caco-2 colonocytes; 200 μM): + (125% > <150%: +); % Change in TEER from DMSO (Caco-2 colonocytes; 2 mM): − (<125%: −)
